This test has as its system human FXN. In words: FXN mRNA expression by qRT-PCR in GM15850 cells after 48 hr compound treatment. The test is classed as cell-based. The settings on record: Homo sapiens, read-out: EC50 WT (nM, 48 hr). As for the experimental part: Cell culture: Cells were cultured in RPMI1640 medium+15% FBS. Cells were maintained at a density between 2e5/mL and 1e6/mL. Cells were centrifuged, resuspended in fresh medium, counted and plated at 150,000 cells per well in 100 uL in a non-coated, flat bottom tissue culture plate.
Compound treatment: 10 mM stock solution of FA GeneTAC was diluted 1:10 in DMSO followed by a 1:100 dilution in growth medium. […] Compound was then diluted at a 1:3 ratio into growth medium containing 0.01% DMSO. 5-point, 3-fold dose response curve was generated. 11 μL of 10× compound was added to wells containing 100 μL cell suspension of GM15850. 11 μL growth medium containing 0.01% DMSO was added to all wells not treated with FA GeneTAC. Cells were allowed to incubate for 48 hrs prior to cell lysis using guanidine isothiocyanate solution.
RNA isolation: Total RNA was isolated and purified in 384-well column filter plates using chaotropic salt.
qRT-PCR: qRT-PCR reactions were assembled using AgPath-ID reagents (Thermo Fisher) using 6 uL mastermix and 4 μL RNA. qRT-PCR TaqMan primer probe sets against human FXN (Assay ID Hs01075496_m1) and human GAPDH (Assay ID Hs00266705_g1) were used to measure the intended targets. qRT-PCR was run on the ThermoFisher QuantStudio 6 PRO instrument using the manufacturer's recommended cycling conditions.
Data analysis: qPCR data was analyzed using Thermo Fisher Design and Analysis software. Data was exported to Excel and hFXN expression was normalized to hGAPDH expression.
Background: Quantitative PCR measures a nucleic acid by following its amplification.

Where [1] appears, read: GM15850 cells, 48 hr incubation, hFXN normalized to hGAPDH.

The term EC50 denotes the midpoint of the concentration-response curve.

The structures appear in SMILES notation. Read-outs that look alike come from different tables or passages of the source. A value given as a limit tells only on which side of the number the result lay.

Consider `Cc1sc2c(c1C)C(c1ccc(Cl)cc1)=N[C@@H](CC(=O)NC1CCN(CCOCCOCCOCCOCCOCCC(=O)NCCCN(CCCNC(=O)CCNC(=O)c3nc(NC(=O)CCNC(=O)c4cc(NC(=O)c5nc(NC(=O)CCNC(=O)c6cc(NC(=O)c7nccn7C)cn6C)cn5C)cn4C)cn3C)CC(F)(F)F)CC1)c1nnc(C)n1-2` [Compound 101], for which, under setting [1], the EC50 was 100 to 500 nM.

For the compound `Cc1noc(C)c1-c1cnc2c(-c3ccc(C(=O)NCCOCCOCCOCCOCCOCCC(=O)NCCCN(C)CCCNC(=O)CCNC(=O)c4nc(NC(=O)CCNC(=O)c5cc(NC(=O)c6nc(NC(=O)CCNC(=O)c7cc(NC(=O)c8nccn8C)cn7C)cn6C)cn5C)cn4C)cc3)cn([C@@H](C)c3ccccn3)c2c1` [Compound 8], the EC50 under setting [1] was < 100 nM.

Take `Cc1sc2c(c1C)C(c1ccc(Cl)cc1)=N[C@@H](CC(=O)Nc1ccc(OCCOCCOCCOCCOCCOCCOCCOCCOCCNC(=O)CCNC(=O)c3nc(NC(=O)CCNC(=O)c4cc(NC(=O)c5nc(NC(=O)CCNC(=O)c6cc(NC(=O)c7nccn7C)cn6C)cn5C)cn4C)cn3C)nc1)c1nnc(C)n1-2` [Compound 102]: the concentration giving a half-maximal response (EC50) under setting [1] was < 100 nM.

As to `Cc1sc2c(c1C)C(c1ccc(Cl)cc1)=N[C@@H](CC(=O)Nc1ccc(OCCOCCOCCNC(=O)[C@H](CCCNC(=N)N)NC(=O)[C@H](CCCNC(=N)N)NC(=O)CCOCCOCCOCCNC(=O)CCNC(=O)c3nc(NC(=O)CCNC(=O)c4cc(NC(=O)c5nc(NC(=O)CCNC(=O)c6cc(NC(=O)c7nccn7C)cn6C)cn5C)cn4C)cn3C)cc1)c1nnc(C)n1-2` [Compound 99], the EC50 (GM15850, 48 h) is < 100 nM.

With `CC(=O)N1c2ccc(-c3ccc(C(=O)NCCOCCOCCOCCOCCOCCC(=O)NCCCN(C)CCCNC(=O)CCNC(=O)c4nc(NC(=O)CCNC(=O)c5cc(NC(=O)c6nc(NC(=O)CCNC(=O)c7cc(NC(=O)c8nccn8C)cn7C)cn6C)cn5C)cn4C)cc3)cc2[C@H](Nc2ccc(Cl)cc2)C[C@@H]1C` [Compound 31], the half-maximal effective concentration (EC50) under setting [1] is < 100 nM.

Turning to `CC(=O)N1c2ccc(-c3ccc(C(=O)NCCOCCOCCOCCOCCOCCOCCOCCOCCNC(=O)c4nc(NC(=O)CCNC(=O)c5cc(NC(=O)c6nc(NC(=O)CCNC(=O)c7cc(NC(=O)c8nc(NC(=O)CCNC(=O)COCCOCCOCCOCCOCCOCCOCCOCCOCCOCCOCCOCCOCCOCCOCCN)cn8C)cn7C)cn6C)cn5C)cn4C)cc3)cc2[C@H](Nc2ccc(Cl)cc2)C[C@@H]1C` [Compound 89], the EC50 under setting [1] was > 500 nM.

As for `Cc1sc2c(c1C)C(c1ccc(Cl)cc1)=N[C@@H](CC(=O)Nc1ccc(OCCOCCOCCOCCOCCOCCC(=O)NCCCN(C)CCCNC(=O)c3cc(NC(=O)c4nc(NC(=O)CCNC(=O)c5cc(NC(=O)c6nc(NC(=O)CCNC(=O)c7cc(NC(=O)c8nccn8C)cn7C)cn6C)cn5C)cn4C)cn3C)cc1)c1nnc(C)n1-2` [Compound 16], under setting [1], the EC50 is 100 to 500 nM.

`Cc1sc2c(c1C)C(c1ccc(Cl)cc1)=N[C@@H](CC(=O)Nc1ccc(OCCOCCOCCOCCOCCOCCOCCOCCOCCNC(=O)CCNC(=O)c3nc(NC(=O)CCNC(=O)c4cc(NC(=O)c5nc(NC(=O)CCNC(=O)c6cc(NC(=O)c7nccn7C)cn6C)cn5C)cn4C)cn3C)cc1)c1nnc(C)n1-2` [Compound 13]: the EC50 under setting [1] is < 100 nM.

For `Cc1sc2c(c1C)C(c1ccc(Cl)cc1)=N[C@@H](CC(=O)Nc1ccc(OCCOCCOCCOCCOCCOCCOCCOCCOCCOCCNC(=O)CCNC(=O)c3nc(NC(=O)CCNC(=O)c4cc(NC(=O)c5nc(NC(=O)CCNC(=O)c6cc(NC(=O)c7nccn7C)cn6C)cn5C)cn4C)cn3C)cc1)c1nnc(C)n1-2` [Compound 24], the EC50 under setting [1] is < 100 nM.

As for `CC(=O)N1c2ccc(-c3ccc(C(=O)NCCOCCOCCOCCOCCOCCOCCOCCOCCNC(=O)c4nc(NC(=O)CCNC(=O)c5cc(NC(=O)c6nc(NC(=O)CCNC(=O)c7cc(NC(=O)c8nc(NC(=O)CCNC(=N)N)cn8C)cn7C)cn6C)cn5C)cn4C)cc3)cc2[C@H](Nc2ccc(Cl)cc2)C[C@@H]1C` [Compound 86, N-[5-([2-[(2-[[26-([4-[(2S,4R)-1-acetyl-4-[(4-chlorophenyl)amino]-2-methyl-3,4-dihydro-2H-quinolin-6-yl]phenyl]formamido)-3,6,9,12,15,18,21,24-octaoxahexacosan-1-yl]carbamoyl]-1-methylimidazol-4-yl)carbamoyl]ethyl]carbamoyl)-1-methylpyrrol-3-yl]-4-[3-([4-[4-(3-carbamimidamidopropanamido)-1-methylimidazole-2-amido]-1-methylpyrrol-2-yl]formamido)propanamido]-1-methylimidazole-2-carboxamide], the EC50 under setting [1] is > 500 nM.

In the case of `CC(=O)N1c2ccc(-c3ccc(C(=O)NCCOCCOCCOCCOCCOCCOCCOCCOCCNC(=O)c4cc(NC(=O)c5nc(NC(=O)CCNC(=O)c6cc(NC(=O)c7nc(NC(=O)CCNC(=O)COCCOCCOCCN8CCN(CC9CCNCC9)CC8)cn7C)cn6C)cn5C)cn4C)cc3)cc2[C@H](Nc2ccc(Cl)cc2)C[C@@H]1C` [Compound 73], the half-maximal effective concentration (EC50) under setting [1] is > 500 nM.

Turning to `Cc1noc(C)c1-c1cnc2c(-c3ccc(C(=O)NCCOCCOCCOCCOCCOCCOCCOCCNC(=O)CCNC(=O)c4nc(NC(=O)CCNC(=O)c5cc(NC(=O)c6nc(NC(=O)CCNC(=O)c7cc(NC(=O)c8nccn8C)cn7C)cn6C)cn5C)cn4C)cc3)cn([C@@H](C)c3ccccn3)c2c1` [Compound 41], under setting [1], the EC50 lay within 100 to 500 nM.

`Cc1sc2c(c1C)C(c1ccc(Cl)cc1)=N[C@@H](CC(=O)Nc1ccc(CCCOCCOCCOCCOCCOCCOCCOCCOCCNC(=O)CCNC(=O)c3nc(NC(=O)CCNC(=O)c4cc(NC(=O)c5nc(NC(=O)CCNC(=O)c6cc(NC(=O)c7nccn7C)cn6C)cn5C)cn4C)cn3C)cc1)c1nnc(C)n1-2` [Compound 63]: under setting [1], the concentration for a half-maximal effect (EC50) was < 100 nM.

In the case of `CCCNC(=O)CCNC(=O)c1nc(NC(=O)CCNC(=O)c2cc(NC(=O)c3nc(NC(=O)CCNC(=O)c4cc(NC(=O)c5nc(NC(=O)COCCOCCOCCOCCOCCOCCOCCOCCOc6ccc(NC(=O)C[C@@H]7N=C(c8ccc(Cl)cc8)c8c(sc(C)c8C)-n8c(C)nnc87)cc6)cn5C)cn4C)cn3C)cn2C)cn1C` [Compound 50], the EC50 under setting [1] was < 100 nM.

As for `COc1ccc2c(c1)C(c1ccc(Cl)cc1)=N[C@@H](CC(=O)Nc1ccc(OCCOCCOCCNC(=O)[C@H](CCCNC(=N)N)NC(=O)[C@H](CCCNC(=N)N)NC(=O)CCOCCOCCOCCNC(=O)CCNC(=O)c3nc(NC(=O)CCNC(=O)c4cc(NC(=O)c5nc(NC(=O)CCNC(=O)c6cc(NC(=O)c7nccn7C)cn6C)cn5C)cn4C)cn3C)cc1)c1nnc(C)n1-2` [Compound 100], the EC50 under setting [1] was in the range of 100 to 500 nM.

Regarding `Cc1sc2c(c1C)C(c1ccc(Cl)cc1)=N[C@@H](CC(=O)Nc1cncc(OCCOCCOCCOCCOCCOCCOCCOCCOCCNC(=O)CCNC(=O)c3nc(NC(=O)CCNC(=O)c4cc(NC(=O)c5nc(NC(=O)CCNC(=O)c6cc(NC(=O)c7nccn7C)cn6C)cn5C)cn4C)cn3C)c1)c1nnc(C)n1-2` [Compound 103], the half-maximal effective concentration (EC50) under setting [1] is < 100 nM.

`COc1ccc2c(c1)C(c1ccc(Cl)cc1)=N[C@@H](CC(=O)Nc1ccc(OCCOCCOCCOCCOCCOCCOCCOCCOCCNC(=O)CCNC(=O)c3nc(NC(=O)CCNC(=O)c4cc(NC(=O)c5nc(NC(=O)CCNC(=O)c6cc(NC(=O)c7nccn7C)cn6C)cn5C)cn4C)cn3C)cc1)c1nnc(C)n1-2` [Compound 25]: the half-maximal effective concentration (EC50) under setting [1] fell in the range of 100 to 500 nM.

Consider `Cc1sc2c(c1C)C(c1ccc(Cl)cc1)=N[C@@H](CC(=O)Nc1ccc(OCCOCCOCCOCCOCCOCCOCCOCC(=O)NCCNC(=O)CCNC(=O)c3nc(NC(=O)CCNC(=O)c4cc(NC(=O)c5nc(NC(=O)CCNC(=O)c6cc(NC(=O)c7nccn7C)cn6C)cn5C)cn4C)cn3C)cc1)c1nnc(C)n1-2` [Compound 17], for which the concentration giving a half-maximal response (EC50) under setting [1] is < 100 nM.

With `Cc1sc2c(c1C)C(c1ccc(Cl)cc1)=N[C@@H](CC(=O)Nc1cccc(OCCOCCOCCOCCOCCOCCOCCOCCOCCNC(=O)CCNC(=O)c3nc(NC(=O)CCNC(=O)c4cc(NC(=O)c5nc(NC(=O)CCNC(=O)c6cc(NC(=O)c7nccn7C)cn6C)cn5C)cn4C)cn3C)c1)c1nnc(C)n1-2` [Compound 65], the half-maximal effective concentration (EC50) under setting [1] was in the range of 100 to 500 nM.

In the case of `COc1ccc2c(c1)C(c1ccc(Cl)cc1)=N[C@H](CC(=O)Nc1ccc(OCCOCCOCCOCCOCCOCCC(=O)NCCCN(C)CCCNC(=O)CCNC(=O)c3nc(NC(=O)CCNC(=O)c4cc(NC(=O)c5nc(NC(=O)CCNC(=O)c6cc(NC(=O)c7nccn7C)cn6C)cn5C)cn4C)cn3C)cc1)c1nnc(C)n1-2` [Compound 11], the concentration giving a half-maximal response (EC50) under setting [1] is > 500 nM.

For the compound `CC(=O)N1c2ccc(-c3ccc(C(=O)NCCOCCOCCOCCOCCOCCOCCOCCOCCNC(=O)c4cc(NC(=O)c5nc(NC(=O)CCNC(=O)c6cc(NC(=O)c7nc(NC(=O)CCNC(=O)[C@H](CCCNC(=N)N)NC(=O)[C@@H](N)CCCNC(=N)N)cn7C)cn6C)cn5C)cn4C)cc3)cc2[C@H](Nc2ccc(Cl)cc2)C[C@@H]1C` [Compound 75], the concentration for a half-maximal effect (EC50) under setting [1] is > 500 nM.

With `CC(=O)N1c2ccc(-c3ccc(C(=O)NCCOCCOCCOCCOCCOCCOCCOCCOCCNC(=O)c4nc(NC(=O)CCNC(=O)c5cc(NC(=O)c6nc(NC(=O)CCNC(=O)c7cc(NC(=O)c8nc(NC(=O)CCNC(=O)COCCOCCOCCN9CCN(CC%10CCNCC%10)CC9)cn8C)cn7C)cn6C)cn5C)cn4C)cc3)cc2[C@H](Nc2ccc(Cl)cc2)C[C@@H]1C` [Compound 88], the EC50 under setting [1] was > 500 nM.

With `Cc1sc2c(c1C)C(c1ccc(Cl)cc1)=N[C@@H](CC(=O)Nc1ccc(OCCOCCOCCOCCOCCOCCOCCOCC(=O)NCCCN(C)CCCNC(=O)c3cc(NC(=O)c4nc(NC(=O)CCNC(=O)c5cc(NC(=O)c6nc(NC(=O)CCNC(=O)c7cc(NC(=O)c8nccn8C)cn7C)cn6C)cn5C)cn4C)cn3C)cc1)c1nnc(C)n1-2` [Compound 57], under setting [1], the concentration giving a half-maximal response (EC50) was 100 to 500 nM.
